Data from patent publication US20130252983A1, “ACTIVATING PHOSPHORYLATION SITE ON GLUTAMINASE C” (CORNELL UNIVERSITY, priority 2010, published 2013).
Entries after “also recorded” stand apart in the source; their conditions may differ.

Experiments:
GAC phosphorylation = target: T1, GAC phosphorylation (Mus musculus, UniProt D3Z7P3); assay: 2-D gel analysis of V5-GAC phosphorylation states from treated Dbl cells; format: cell-based; details: 48 hours
T1 construct: expressed in transfected cells; host or cells: NIH 3T3 cells (stably expressing Dbl, or parental), transient transfection
T1 sequence (D3Z7P3 55-603 isoform D3Z7P3-2 limits assumed): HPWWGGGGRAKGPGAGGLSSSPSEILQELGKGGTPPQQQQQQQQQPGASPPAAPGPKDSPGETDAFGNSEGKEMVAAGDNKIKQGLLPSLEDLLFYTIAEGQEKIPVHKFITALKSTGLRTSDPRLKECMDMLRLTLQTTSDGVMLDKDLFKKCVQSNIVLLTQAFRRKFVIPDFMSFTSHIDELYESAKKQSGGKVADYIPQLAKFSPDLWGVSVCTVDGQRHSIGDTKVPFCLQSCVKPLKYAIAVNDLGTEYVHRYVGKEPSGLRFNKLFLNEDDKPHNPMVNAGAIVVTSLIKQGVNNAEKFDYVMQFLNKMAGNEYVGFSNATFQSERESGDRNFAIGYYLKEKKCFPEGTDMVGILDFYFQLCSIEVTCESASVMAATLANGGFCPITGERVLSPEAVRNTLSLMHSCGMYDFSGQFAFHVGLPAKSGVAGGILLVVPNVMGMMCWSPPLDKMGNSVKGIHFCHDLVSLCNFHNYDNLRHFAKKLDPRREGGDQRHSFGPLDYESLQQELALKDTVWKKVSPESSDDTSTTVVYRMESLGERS
Method: NIH 3T3 cells stably expressing the Dbl oncogene, were transiently transfected with DNA encoding a VS-tagged GAC, and then one sample was treated with 968 (10 μM) for 48 hours. The cells were then harvested and the ectopically expressed GAC was isolated by immunoprecipitation via the V5 tag. The samples were then subjected to 2-D gel analysis to separate the V5-GAC by charge and size, and the V5-tagged GAC was visualized by Western blotting using an anti-V5 antibody.
GAC runs distinctly on a 2D gel depending whether it is expressed in normal (untransformed) NIH 3T3 cells or in NIH 3T3 cells which are transformed by the Dbl oncogene. Specifically, there is one major species of GAC present in NIH 3T3 cells whereas in Dbl cells, two additional species of GAC appear which migrate with a more negative charge but at the same molecular mass as the original species (FIG. 21, first and second panels). […] Additionally, it has been shown that small molecules of the 968 family which are able to inhibit GAC in vivo do so by blocking the ability of GAC to become phosphorylated. Thus, it was of great interest to identify the amino acid(s) on GAC whose phosphorylation is causal in the activation of this enzyme.

[1] = test system: GA activity of SKBR3 cells; assay: GA activity in mitochondrial fractions of treated SKBR3 cells; format: cell-based, human; details: 2 μM
Method: (§1) 100%=620 moles of glutamine hydrolyzed per minute per mole of enzyme. Data represent the average of 3 experiments (±s.d.). […] Following precipitation of the beads and re-suspension, the samples were analyzed by Western blotting with anti-V5 antibody. […] Data represent the average of 3 experiments (±s.d.). […] Data represent the average of 3 experiments (±s.d.). […] Data represent the average of 3 experiments (±s.d.). FIG. 3E NIH 3T3 cells transiently expressing Dbl were assayed for focus formation in the presence of 10 μM 968 alone or together with 7 mM dimethyl α-ketoglutarate. […] 100%=680 nM glutamine hydrolyzed per minute per 10^5 cells. Data are the average of 3 experiments (±s.d.). […] 100%=750 nM glutamine hydrolyzed per minute per 10^5 cells. Data represent the average of 3 experiments (±s.d.).
(§2) FIGS. 4A-E illustrate the role of glutaminase C activity in cellular transformation. […] Data represent the average of 3 experiments (±s.d.). […] Data represent the average of 3 experiments (±s.d.). […] 100% represents the activity measured in untreated Dbl-transformed cells. The data represent the average of 2 experiments. […] 100% represents the activity measured in untreated SKBR3 cells. The data represent the average of 2 experiments. […] Data represent the average of 3 experiments (±s.d.).
FIGS. 11A-E illustrate the effects of different treatments on GA activity. […] The addition of Pi stimulated the GA activity in control 3T3 cells, Dbl-expressing cells, and Cdc42(F28L)-expressing cells by ˜6-fold, 2-fold, and 3-fold, respectively. 100% represents the Pi-stimulated activity measured for Dbl-transformed cells that were not treated with 968. Data is the average of 3 experiments (±s.d.). […] The addition of Pi stimulated the GA activity of HMECs, MDA-MB231 cells, and SKBR3 cells by ˜5-fold, 2-fold, and 1.4-fold, respectively. […] The data are plotted as the percentage of GA activity measured for untreated SKBR3 cells and represent the average of 2 experiments. […] 100% represents the Pi-stimulated activity measured for untreated Dbl-transformed cells. […]

[2] = target: T2, GA activity of NIH 3T3 cells stably expressing Dbl or Cdc42(F28L) (Mus musculus, UniProt D3Z7P3); assay: GA activity in mitochondrial fractions of treated transformed NIH 3T3 cells; format: cell-based
T2 construct: endogenous in cells; host or cells: NIH 3T3 cells stably expressing Dbl or Cdc42(F28L); mitochondrial fraction
T2 sequence (D3Z7P3 55-603 isoform D3Z7P3-2): T1 sequence (D3Z7P3 55-603 isoform D3Z7P3-2 limits assumed)
Method: as §1, §2
FIGS. 11A-E illustrate the effects of different treatments on GA activity. […] The addition of Pi stimulated the GA activity in control 3T3 cells, Dbl-expressing cells, and Cdc42(F28L)-expressing cells by ˜6-fold, 2-fold, and 3-fold, respectively. 100% represents the Pi-stimulated activity measured for Dbl-transformed cells that were not treated with 968. Data is the average of 3 experiments (±s.d.). […] The addition of Pi stimulated the GA activity of HMECs, MDA-MB231 cells, and SKBR3 cells by ˜5-fold, 2-fold, and 1.4-fold, respectively. 100% represents the Pi-stimulated activity for SKBR3 cells that were not treated with 968. Data are the average of 3 experiments (±s.d.). […] Mitochondrial fractions were prepared from equal numbers of cells and assayed for GA activity in the presence or absence of 133 mM Pi. The data are plotted as the percentage of GA activity measured for untreated SKBR3 cells and represent the average of 2 experiments. […] 100% represents the Pi-stimulated activity measured for untreated Dbl-transformed cells. The data represent the average of 2 experiments. […] 100% represents the Pi-stimulated activity for untreated SKBR3 cells. The data represent the average of 2 experiments.
Dbl expressing NIH 3T3 cells were treated for 48 hours in the presence or absence of 968 (10 μM), Bay 11-7082 (2 μM) or Rapamycin (100 nM). Mitochondria were then isolated from the treated cells and assayed for glutaminase activity in the absence or presence of phosphate.
Mitochondrial preparations were obtained using the mitochondria isolation kit from QIAGEN (Cat #37612). A suspension containing 2×10^7 cells was transferred into a 50 ml conical tube and centrifuged at 500×g for 10 minutes at 4° C. The pellets were resuspended in 2 ml of ice-cold lysis buffer (supplied by QIAGEN) and incubated for 10 minutes at 4° C. using an end-over-end shaker. The lysates were centrifuged at 1000×g for 10 minutes at 4° C., and the pellets were resuspended in a buffer supplied by the manufacturer and disrupted completely by using a blunt-ended, 23-gauge needle and a syringe, followed by centrifugation at 6000×g for 20 minutes at 4° C. […]

[3] = target: T3, mouse GAC (E. coli-expressed mouse ortholog of human GAC) (Mus musculus, UniProt D3Z7P3); assay: Recombinant glutaminase activity assay; format: biochemical
T3 construct: A plasmid encoding mouse GAC (residues 128-603) was cloned into the pET28a vector; His (N, cleaved yes); made in house; host or cells: E. coli (pET28a)
T3 sequence (D3Z7P3 128-603 isoform D3Z7P3-2): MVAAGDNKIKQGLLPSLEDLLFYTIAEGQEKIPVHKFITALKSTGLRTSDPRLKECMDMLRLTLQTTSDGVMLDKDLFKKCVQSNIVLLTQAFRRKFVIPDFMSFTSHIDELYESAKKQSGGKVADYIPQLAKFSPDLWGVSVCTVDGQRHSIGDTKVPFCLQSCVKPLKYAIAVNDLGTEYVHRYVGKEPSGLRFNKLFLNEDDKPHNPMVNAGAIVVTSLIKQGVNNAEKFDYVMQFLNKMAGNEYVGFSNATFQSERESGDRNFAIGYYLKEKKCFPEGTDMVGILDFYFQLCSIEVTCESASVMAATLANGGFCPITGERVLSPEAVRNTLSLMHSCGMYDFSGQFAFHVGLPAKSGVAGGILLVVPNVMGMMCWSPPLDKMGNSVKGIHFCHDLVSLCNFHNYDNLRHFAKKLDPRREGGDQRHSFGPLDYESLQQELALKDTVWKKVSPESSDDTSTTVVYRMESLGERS
Method: as §1
The activity of the E. coli-expressed recombinant mouse ortholog of human GAC were assayed in the presence of 0 ([…]), 10 (∇) or 20 (▪) μM 968 and inorganic phosphate in the form of dipotassium hydrogen phosphate. […] The data are plotted as GA activity as function of varying concentrations of glutamine or inorganic phosphate. The data are the average of 3 experiments and are plotted as mean±SEM.
Glutaminase activity assays were performed on recombinant enzyme as previously described (Kenny et al., “Bacterial Expression, Purification and Characterization of Rat Kidney-Type Mitochondrial Glutaminase,” Protein Expr. Purif. 31:140-148 (2003), which is hereby incorporated by reference in its entirety). A plasmid encoding mouse GAC (residues 128-603) was cloned into the pET28a vector and the protein was expressed with an N-terminal histidine (His)-tag. The tag was cleaved using thrombin and the protein was further purified by anion-exchange and gel-filtration chromatography. […] The reaction mixture was incubated at room temperature for 45 minutes and the absorbance at 340 nm was recorded for each sample against a water blank. The absorbance of the sample with just the cocktail mixture was subtracted from each reading to calculate the activity of the enzyme.

[4] = test system: NIH 3T3 cells expressing oncogenic Dbl; assay: Dbl-induced cellular transformation (focus formation, growth in low serum, soft agar); format: cell-based, mouse; details: focus formation / growth in low serum
Method: FIGS. 1A-E illustrate that the small molecule 968 inhibits cellular transformation. […] Cells were fixed and stained with crystal violet for counting of foci. Right: 968 was serially diluted (10, 5, 2.5, and 1.25 μM) and evaluated for its ability to inhibit focus formation. […] After 6 days, the cells were counted. 100% represents the number of Dbl-transformed cells counted in the absence of 968 (27.5×10^4 cells). Data represent the average of 3 experiments (±s.d.). […] At the indicated times, the cells were counted. Data represent the average of 3 experiments (±s.d.).
FIGS. 2A-G illustrate effects of 968 on the transforming activity of constitutively active Rho GTPases and human breast cancer cells. […] Cells were scored after 14 days and plotted as the percentage of the total number of colonies greater than 50 μm in diameter. Data represent the average of 3 experiments (±s.d.). […] Data represent the average of 3 experiments (±s.d.). […] Data represent the average of 3 experiments (±s.d.). […] After 24 hours at 37° C., the migratory cells were fixed, stained with GIEMSA, and counted. Data represent the average of 3 experiments (±s.d.). […] Data represent the average of 3 experiments (±s.d.). […] Data represent the average of 3 experiments (±s.d.). […] Data represent the average of 3 experiments (±s.d.).
FIGS. 5A-C illustrate comparative abilities of 968 and other benzo[a]phenanthridinones to inhibit the transforming activity of oncogenic Dbl and H-Ras. […] Histograms show the relative levels of Dbl-induced focus formation for the different treatments, compared to Dbl-induced focus formation measured in the presence of DMSO (i.e. solvent control). Data represent the average of 3 experiments (mean±s.d.). […] Histograms show the relative levels of Ras(G12V)-induced focus formation measured for the different treatments, compared to Ras(G12V)-induced focus formation measured in the presence of DMSO (solvent control). Data represent the average of 3 experiments (mean±s.d.). FIG. 5C NIH 3T3 cells stably expressing H-Ras(G12V) that were cultured in DMEM supplemented with 1% calf serum, with the indicated amounts of 968. After 6 days, cells are trypsinized and counted. 100% represents the number of cells counted in the absence of 968, i.e. 26×10^4 cells. Data represent the average of 3 experiments (mean±s.d.).

## CC(C)(C)c1ccc(S(=O)(=O)/C=C/C#N)cc1 [BAY 11-7082, E3((4-t-butylphenyl)-sulfonyl)-2-propenenitrile]
GAC phosphorylation
  most negative migrating major species of GAC on 2D gel: loss of the most negative migrating major species of GAC
[1]
  basal (phosphate-independent) GA activity: significantly reduces their basal GA activity
  direct stimulation of the enzyme by phosphate (Pi-stimulated GA activity): little or no effect
[2]; Dbl expressing NIH 3T3 cells, 48 hours, Bay 11-7082 (2 μM), Rapamycin (100 nM)
  mitochondrial glutaminase activity: significant loss of glutaminase activity
[2]; Dbl-transformed cells, 2 μM
  direct stimulation of the enzyme by phosphate (Pi-stimulated GA activity): little or no effect
[2]; Dbl-transformed cells, 2 μM, 2 days
  basal (phosphate-independent) GA activity: significantly reduces their basal GA activity

## CC1(C)CC(=O)C2=C(C1)c1c(ccc3ccccc13)NC2c1cccc(Br)c1 (centres unmarked) [Compound 335]
[3]
  inhibition of enzymatic activity of purified mouse GAC: little ability to inhibit enzyme activity
[4]
  blocking of Dbl-induced transformation: little or no inhibition; also recorded: less effective at blocking Dbl-transformation
